This assay concerns fibroblasts derived from human lissencephaly patient (Lis1 +/−). As to the kind of experiment: Fluorescence immunostaining of fibroblasts derived from a human lissencephaly patient. As to conditions: 200 μM, two hours. In kind it is cell-based. The method, then:
The establishment of fibroblasts was performed in the following manner. Under a germ-free condition, a portion of epidermis (5 mm square) was obtained from a lissencephaly patient. The obtained epidermis was transported for 4 hours at room temperature while stored in a culture solution (E-MEM (Wako Pure Chemical Industries, Ltd., 051-07615), 10% fetal bovine blood serum (Equitech-Bio Inc, SFBM30-1798, 1×L-glutamine (Gibco, 25030), 1× Pen-Strep (Gibco, 15140)) (*the culture solution with this formulation is used hereinafter). After transportation, the tissue fragment was cut into a 1 mm square, fixed to a culture flask (Becton Dickinson 353009), and cultured for three weeks in 6 ml of a culture solution. After the 3-week culture, the amplification of fibroblasts from the tissue fragment was confirmed; then, the fragment was washed with a phosphate buffer physiological saline solution (phosphate buffered saline, PBS (−), 137 mM NaCl, 2.7 mM KCl, 10 mM Na2HPO4, 1.8 mM KH2PO4, pH 7.4), and 0.5 ml of trypsin-EDTA (Gibco, 25200) was added, followed by reaction for 5 minutes at 37° C. to separate the cells. Then, 10 ml of a culture solution was added, and the fragment was transferred to a 10 cm petri dish (Greiner, 664-160) for culture.
To observe the cells with a microscope, the cells were cultured on cover glasses. The cover glasses (24×24 No. 1, Matsunami Glass Ind., Ltd.) were immersed in 0.1 M hydrochloric acid for 20 minutes. After washing with water, the cover glasses were placed in 70% ethanol, and kept in a clean bench. In the clean bench, each cover glass was placed on the bottom of each well of a 6-well plate (Falcon 353046). After the ethanol was dried, 0.5×10^5 fibroblasts per well were added and cultured for 16 hours, thereby adhering the cells onto the cover glasses.
A SNJ-1945-containing culture solution was prepared. […]

As for `COCCOCCOC(=O)N[C@@H](CC(C)C)C(=O)N[C@@H](Cc1ccccc1)C(=O)C(=O)NC1CC1` [compound 17, ((1S)-1-((((1S)-1-Benzyl-2,3-dioxo-3-(cyclopropylamino)propyl)amino)carbonyl)-3-methylbutyl)carbamic acid 5-methoxy-3-oxapentyl ester], the “intracellular distribution of LIS1” value (FIGS. 15 and 16) is reported as “causes LIS1 to be accumulated around the nucleus or centrosome again”. Further, the “intracellular distribution of cytoplasmatic dynein” value (FIGS. 17 and 18) is given as “cytoplasmatic dynein became completely diffused again from the region around the nucleus to the cell marginal zone”. Moreover, the “intracellular distribution of β-COP-coated vesicles” value (FIGS. 19 and 20) is recorded as “β-COP-coated vesicles became distributed evenly from the region around the nucleus to the cell marginal zone again”.

For the origin of these results see patent publication US9539298B2, “Lissencephaly therapeutic agent” (OSAKA CITY UNIVERSITY, priority 2010, dated 2017).
